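Cells were grown in 96-well plates and exposed to each compound for 48 hours at five concentrations; endpoints were interpolated linearly between bracketing concentrations, or set to the highest concentration if not reached. The concentration for 50% growth inhibition is given as GI50. At the TGI there is no net growth.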
Tests used:
Assay in all cases: NCI tumour cell line growth inhibition, 48 h
[1] = system: SR leukemia
[2] = system: KM12 colon
[3] = system: HCT-116 colon
[4] = system: SW-620 colon
[5] = system: NCI-H226 lung
[6] = system: TK-10 renal
[7] = system: PC-3 prostate
[8] = system: SF-268 CNS
[9] = system: SF-295 CNS
[10] = system: NCI/ADR-RES ovarian
[11] = system: MALME-3M melanoma
[12] = system: COLO 205 colon
[13] = system: NCI-H460 lung
[14] = system: T-47D breast
[15] = system: SNB-19 CNS
[16] = system: SK-MEL-2 melanoma
[17] = system: HT29 colon
[18] = system: OVCAR-5 ovarian
[19] = system: SK-MEL-28 melanoma
[20] = system: LOX IMVI melanoma
[21] = system: SK-MEL-5 melanoma
[22] = system: HOP-62 NSCLC
[23] = system: HS 578T breast
[24] = system: SN12C renal
[25] = system: SF-539 CNS
[26] = system: NCI-H23 lung
[27] = system: OVCAR-4 ovarian
[28] = system: MOLT-4 leukemia
[29] = system: DU-145 prostate
[30] = system: RPMI-8226 leukemia
[31] = system: SK-OV-3 ovarian
[32] = system: OVCAR-3 ovarian
[33] = system: SNB-75 CNS
[34] = system: HL-60(TB) leukemia
[35] = system: HCC-2998 colon
[36] = system: A498 renal
[37] = system: K-562 leukemia
[38] = system: CAKI-1 renal
[39] = system: BT-549 breast
[40] = system: UO-31 renal
[41] = system: CCRF-CEM leukemia
[42] = system: MDA-MB-231 breast
[43] = system: RXF 393 renal
[44] = system: MCF7 breast
[45] = system: ACHN renal
[46] = system: NCI-H522 lung
[47] = system: M14 melanoma
[48] = system: HOP-92 NSCLC
[49] = system: IGROV1 ovarian
[50] = system: MDA-MB-435
[51] = system: HCT-15 colon
[52] = system: 786-0 renal
[53] = system: UACC-257 melanoma
[54] = system: EKVX NSCLC
[55] = system: A549 NSCLC
[56] = system: U251 CNS
[57] = system: UACC-62 melanoma
[58] = system: OVCAR-8 ovarian

SMILES: Oc1[nH]c(N=C2N=c3ccccc3=N2)c2ccccc12
- GI50 [1]: 5.46 µM
- TGI [1]: 41.6 µM
- GI50 [2]: 11.5 µM
- TGI [2]: 42.9 µM
- GI50 [3]: 7.3 µM
- TGI [3]: 29.5 µM
- GI50 [4]: 10.6 µM
- TGI [4]: 32.4 µM
- GI50 [5]: 10.4 µM
- TGI [5]: 30 µM
- GI50 [6]: 21 µM
- TGI [6]: 55.4 µM
- GI50 [7]: 6.34 µM
- TGI [7]: 73.8 µM
- GI50 [8]: 11.6 µM
- TGI [8]: 50.8 µM
- GI50 [9]: 3.64 µM
- TGI [9]: 26 µM
- GI50 [10]: 3.87 µM
- TGI [10]: 30.1 µM
- GI50 [11]: 9.69 µM
- TGI [11]: 37.6 µM
- GI50 [12]: 6.39 µM
- TGI [12]: 20.5 µM
- GI50 [13]: 3.01 µM
- TGI [13]: 21 µM
- GI50 [14]: 8.27 µM
- TGI [14]: 85.8 µM
- GI50 [15]: 15.7 µM
- TGI [15]: 93 µM
- GI50 [16]: 11.1 µM
- TGI [16]: 29.7 µM
- GI50 [17]: 9.18 µM
- TGI [17]: 39.7 µM
- GI50 [18]: 20.4 µM
- TGI [18]: 68.1 µM
- GI50 [19]: 12.8 µM
- TGI [19]: 33.6 µM
- GI50 [20]: 4.78 µM
- TGI [20]: 24.9 µM
- GI50 [21]: 8.57 µM
- TGI [21]: > 100 µM
- GI50 [22]: 10.1 µM
- TGI [22]: 22.9 µM
- GI50 [23]: 10.7 µM
- TGI [23]: 39.8 µM
- GI50 [24]: 12.8 µM
- TGI [24]: 36.7 µM
- GI50 [25]: 14.3 µM
- TGI [25]: 40.2 µM
- GI50 [26]: 7.29 µM
- TGI [26]: 52.6 µM
- GI50 [27]: 6.84 µM
- TGI [27]: 24 µM
- GI50 [28]: 3.28 µM
- TGI [28]: 29.5 µM
- GI50 [29]: 10.3 µM
- TGI [29]: 22.6 µM
- GI50 [30]: 14.9 µM
- TGI [30]: 72.1 µM
- GI50 [31]: 12.1 µM
- TGI [31]: 27.7 µM
- GI50 [32]: 5.16 µM
- TGI [32]: 19.2 µM
- GI50 [33]: 10.9 µM
- TGI [33]: 31.5 µM
- GI50 [34]: 13.7 µM
- TGI [34]: 52.9 µM
- GI50 [35]: 17.4 µM
- TGI [35]: > 100 µM
- GI50 [36]: 6.31 µM
- TGI [36]: 19.9 µM
- GI50 [37]: 9.86 µM
- TGI [37]: > 100 µM
- GI50 [38]: 2.95 µM
- TGI [38]: 21.7 µM
- GI50 [39]: 16.7 µM
- TGI [39]: 54.5 µM
- GI50 [40]: 4.58 µM
- TGI [40]: 18.6 µM
- GI50 [41]: 1.48 µM
- TGI [41]: 27.8 µM
- GI50 [42]: 15.2 µM
- TGI [42]: 46.2 µM
- GI50 [43]: 8.85 µM
- TGI [43]: 22.2 µM
- GI50 [44]: 2.65 µM
- TGI [44]: 23.7 µM
- GI50 [45]: 12.3 µM
- TGI [45]: 29 µM
- GI50 [46]: 11.2 µM
- TGI [46]: 41.6 µM
- GI50 [47]: 12.2 µM
- TGI [47]: 38.8 µM
- GI50 [48]: 15 µM
- TGI [48]: 49 µM
- GI50 [49]: 1.28 µM
- TGI [49]: 33.7 µM
- GI50 [50]: 12.4 µM
- TGI [50]: 69.4 µM
- GI50 [51]: 3.54 µM
- TGI [51]: > 100 µM
- GI50 [52]: 17.2 µM
- TGI [52]: 39.6 µM
- GI50 [53]: 13.7 µM
- TGI [53]: > 100 µM
- GI50 [54]: 4.22 µM
- TGI [54]: 52.2 µM
- GI50 [55]: 8.67 µM
- TGI [55]: 41.1 µM
- GI50 [56]: 3.4 µM
- TGI [56]: 42.3 µM
- GI50 [57]: 11.8 µM
- TGI [57]: 36 µM
- GI50 [58]: 11.4 µM
- TGI [58]: 46.4 µM

Reference: PubChem BioAssay (NCI)
